Laboratory results: article PMC3561959 (Nucleic Acids Research, 2012)

Columns and labels:
[1] = target: RPA (Homo sapiens, UniProt P27694); assay: Helix destabilization assay; format: biochemical; conditions: EMSA, dsDNA probe, 200 µM of each compound
[2] = target: DBD-F^MBP (Homo sapiens, UniProt P27694); format: binding; conditions: competitive titration, fluorescence anisotropy
Chain of DBD-F^MBP (P27694 1-168): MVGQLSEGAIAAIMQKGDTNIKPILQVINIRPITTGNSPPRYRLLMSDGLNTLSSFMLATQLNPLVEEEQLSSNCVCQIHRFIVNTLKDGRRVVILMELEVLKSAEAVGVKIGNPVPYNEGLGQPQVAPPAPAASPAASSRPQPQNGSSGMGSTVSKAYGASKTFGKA

Chain of RPA (P27694 whole entry): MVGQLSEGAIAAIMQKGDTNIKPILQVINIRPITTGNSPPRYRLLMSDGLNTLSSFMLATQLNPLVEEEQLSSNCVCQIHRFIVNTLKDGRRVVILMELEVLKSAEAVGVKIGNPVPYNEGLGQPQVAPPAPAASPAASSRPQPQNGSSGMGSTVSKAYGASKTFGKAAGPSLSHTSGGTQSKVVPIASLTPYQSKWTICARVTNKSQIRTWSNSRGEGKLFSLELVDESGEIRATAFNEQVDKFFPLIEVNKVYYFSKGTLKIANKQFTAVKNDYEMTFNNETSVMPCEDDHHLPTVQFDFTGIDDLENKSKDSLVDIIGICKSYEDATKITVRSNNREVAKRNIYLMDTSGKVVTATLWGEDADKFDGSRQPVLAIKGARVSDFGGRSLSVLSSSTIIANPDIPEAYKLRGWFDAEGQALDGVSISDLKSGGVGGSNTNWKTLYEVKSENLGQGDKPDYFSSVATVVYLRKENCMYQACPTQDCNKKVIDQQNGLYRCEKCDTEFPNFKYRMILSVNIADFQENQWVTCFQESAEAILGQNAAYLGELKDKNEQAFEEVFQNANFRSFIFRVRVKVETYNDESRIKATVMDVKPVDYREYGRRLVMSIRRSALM
Chain of RPA (P15927 whole entry partner): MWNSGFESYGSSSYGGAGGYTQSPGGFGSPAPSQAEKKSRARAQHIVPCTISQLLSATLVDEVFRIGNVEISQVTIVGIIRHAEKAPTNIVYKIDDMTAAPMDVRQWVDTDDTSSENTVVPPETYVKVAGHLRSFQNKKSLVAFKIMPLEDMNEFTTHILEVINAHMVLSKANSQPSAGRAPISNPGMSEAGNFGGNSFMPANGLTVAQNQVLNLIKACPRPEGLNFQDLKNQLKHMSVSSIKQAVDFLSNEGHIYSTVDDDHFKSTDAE
Chain of RPA (P35244 whole entry partner): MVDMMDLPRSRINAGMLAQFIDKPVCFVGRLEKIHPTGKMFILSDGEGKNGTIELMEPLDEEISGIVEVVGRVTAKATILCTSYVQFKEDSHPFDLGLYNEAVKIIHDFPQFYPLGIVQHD

Row | inhibition of helix destabilization by RPA [1] | competition with X-rhodamine-labelled p53TAD2 for binding to DBD-F^MBP [2] | SMILES
1 | no effect | no evidence of binding | O=C(O)C1CCC(C(=O)O)CC1 (stereo not shown) [1,4-cyclohexanedicarboxylic acid]
2 | no effect | no evidence of binding | O=C(O)CCC(=O)O [succinic acid]
